Laboratory results from US8759539B2, “Substituted bicyclic amines for the treatment of diabetes” (Merck Sharp & Dohme Corp., priority 2008, dated 2014).

Columns and labels:
SSTR5 [1] = target: T1, SSTR5 (Homo sapiens, UniProt P35346); experiment: Functional assay to assess the inhibition of SSTR5 mediated cyclic AMP production; type: cell-based, human or mouse; settings: SSTR5 stable CHO cells, 5 μM FSK, Lance cAMP assay kit, eight-point titration
Method: Functional Assay to Assess the Inhibition of SSTR5Mediated Cyclic AMP Production:
The effects of compounds that bind to human and murine SSTR5 with various affinities on the functional activity of the receptor were assessed by measuring cAMP production in the presence of Forskolin (FSK) alone or FSK plus SS-28 in SSTR5 expressing CHO cells. FSK acts to induce cAMP production in these cells by activating adenylate cyclases, whereas SS-28 suppresses cAMP production in the SSTR5 stable cells by binding to SSTR5 and the subsequent inhibition of adenylate cyclases via an alpha subunit of […] (Gαi).
To measure the agonism activity of the compounds, human or mouse SSTR5 stable CHO cells were pre-incubated with the compounds for 15 min, followed by a one-hour incubation of the cells with 5 μM FSK (in the continuous presence of the compounds). The amount of cAMP produced during the incubation was quantified with the Lance cAMP assay kit (PerkinElmer, CA) according to the manufacturer's instruction, as well as, an IC50 value was obtained by an eight-point titration.
Target sequence in this assay (P35346 whole entry): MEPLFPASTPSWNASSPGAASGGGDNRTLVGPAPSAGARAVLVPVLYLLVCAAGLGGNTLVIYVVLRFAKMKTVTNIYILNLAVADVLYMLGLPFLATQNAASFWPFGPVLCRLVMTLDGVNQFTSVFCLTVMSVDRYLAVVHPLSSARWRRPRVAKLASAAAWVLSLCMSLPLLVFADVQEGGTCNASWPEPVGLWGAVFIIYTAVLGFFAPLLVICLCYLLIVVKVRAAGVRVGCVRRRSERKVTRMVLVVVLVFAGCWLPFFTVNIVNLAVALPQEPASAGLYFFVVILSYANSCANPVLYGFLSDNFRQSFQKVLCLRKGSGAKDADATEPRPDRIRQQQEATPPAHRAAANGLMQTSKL

SSTR5 [2] = target: T1, SSTR5; experiment: SSTR5 binding (R5 Bnd)
Target sequence in this assay (P35346 whole entry, species assumed): as the sequence (P35346 whole entry) above

CCOc1cc(CN2CC[C@H]3C(Nc4nc5ccc(C(=O)O)cc5o4)CC[C@H]32)cc(OCC)c1-c1ccc(F)cc1 (stereo partly shown) [Example 79]
IC50 (SSTR5 [1]): 0.00521 µM | IC50 (SSTR5 [2]): 0.00129 µM

Cc1cncc(C(=O)N[C@H]2CC[C@@H]3[C@H]2CCN3Cc2cccc(-c3ccccc3)c2)c1 [Example 19]
IC50 (SSTR5 [1]): 1.22 µM | IC50 (SSTR5 [2]): 0.124 µM

CCOc1cc(CN2CC[C@H]3C(Nc4nc5ccc(F)cc5o4)CC[C@H]32)cc(OCC)c1-c1ccc(F)cc1 (stereo partly shown) [Example 83]
IC50 (SSTR5 [1]): 0.252 µM | IC50 (SSTR5 [2]): 0.00747 µM

CCOc1cc(CN2CC[C@H]3C(NC(=O)c4ccc5c(c4)nnn5C(C)C)CC[C@H]32)cc(OCC)c1-c1ccc(F)cc1 (stereo partly shown) [Example 72]
IC50 (SSTR5 [1]): 0.0595 µM | IC50 (SSTR5 [2]): 0.00465 µM

CCOc1cc(CN2CC[C@H]3C(NC(=O)c4ccc5[nH]c(C)nc5c4)CC[C@H]32)cc(OCC)c1-c1ccc(F)cc1 (stereo partly shown) [Example 69]
IC50 (SSTR5 [1]): 0.137 µM | IC50 (SSTR5 [2]): 0.0535 µM

CCOc1cc(CN2CC[C@H]3C(NC(=O)c4cccc(C)c4)CC[C@H]32)cc(OCC)c1-c1ccc(F)cc1 (stereo in doubt) [Example 81]
IC50 (SSTR5 [1]): 0.0701 µM | IC50 (SSTR5 [2]): 0.00501 µM

CCOc1cc(CN2CC[C@H]3C(NC(=O)Nc4cccc(C)c4)CC[C@H]32)cc(OCC)c1-c1ccc(F)cc1 (stereo partly shown) [Example 90]
IC50 (SSTR5 [1]): 0.0857 µM | IC50 (SSTR5 [2]): 0.00499 µM

CCOc1cc(CN2CC[C@H]3C(NC(=O)c4cccc(C)c4)CC[C@H]32)cc(OCC)c1-c1ccc(F)cc1 (stereo in doubt) [Example 63]
IC50 (SSTR5 [1]): 0.0326 µM | IC50 (SSTR5 [2]): 0.00172 µM

CCOc1cc(CN2CC[C@H]3C(NC(=O)OCc4ccccc4)CC[C@H]32)cc(OCC)c1-c1ccc(F)cc1 (stereo partly shown) [Example 97]
IC50 (SSTR5 [1]): 0.0324 µM | IC50 (SSTR5 [2]): 0.00144 µM

CCOc1cc(CN2CC[C@H]3C(NS(=O)(=O)c4cccc(C)c4)CC[C@H]32)cc(OCC)c1-c1ccc(F)cc1 (stereo partly shown) [Example 101]
IC50 (SSTR5 [1]): 0.263 µM | IC50 (SSTR5 [2]): 0.0121 µM

CCOc1cc(CN2CC[C@H]3C(NC(=O)c4ccc(C)nc4)CC[C@H]32)cc(OCC)c1-c1ccc(F)cc1 (stereo partly shown) [Example 60]
IC50 (SSTR5 [1]): 0.0462 µM | IC50 (SSTR5 [2]): 0.00545 µM

CCOc1cc(CN2CC[C@H]3C(NC(=O)c4cncnc4)CC[C@H]32)cc(OCC)c1-c1ccc(F)cc1 (stereo partly shown) [Example 75]
IC50 (SSTR5 [1]): 0.386 µM | IC50 (SSTR5 [2]): 0.148 µM

CCOc1cc(CN2CC[C@H]3C(Nc4nc5cc(S(=O)(=O)/N=C/N(C)C)ccc5o4)CC[C@H]32)cc(OCC)c1-c1ccc(F)cc1 (stereo partly shown) [Example 100]
IC50 (SSTR5 [1]): 0.0387 µM | IC50 (SSTR5 [2]): 0.00207 µM

CCOc1cc(CN2CC[C@H]3C(NC(=O)c4cnc5cc(Cl)ccc5c4O)CC[C@H]32)cc(OCC)c1-c1ccc(F)cc1 (stereo partly shown) [Example 61]
IC50 (SSTR5 [1]): 0.122 µM | IC50 (SSTR5 [2]): 0.0158 µM
